# Source: patent US20210338629A1, “ORAL FORMULATIONS OF PHENYLALANINE AND CANNABINOIDS” (priority 2018, published 2021)
# pIC50, pKi: −log10 of the molar value. Read-outs that look alike come from different tables or passages of the source.
# Assays:
# human CB1R [1] = target: T1, human CB1R (Homo sapiens, UniProt P21554); type: cell-based; settings: for Effect of the cannabinoid on the DLPA effect (DLPA alone vs combos): FIG. 5A-5C
# T1 construct: expressed in transfected cells; host or cells: HEK293T (HEK293T-CB1), transiently co-transfected with the CRE-luc reporter
# T1 sequence (P21554 whole entry): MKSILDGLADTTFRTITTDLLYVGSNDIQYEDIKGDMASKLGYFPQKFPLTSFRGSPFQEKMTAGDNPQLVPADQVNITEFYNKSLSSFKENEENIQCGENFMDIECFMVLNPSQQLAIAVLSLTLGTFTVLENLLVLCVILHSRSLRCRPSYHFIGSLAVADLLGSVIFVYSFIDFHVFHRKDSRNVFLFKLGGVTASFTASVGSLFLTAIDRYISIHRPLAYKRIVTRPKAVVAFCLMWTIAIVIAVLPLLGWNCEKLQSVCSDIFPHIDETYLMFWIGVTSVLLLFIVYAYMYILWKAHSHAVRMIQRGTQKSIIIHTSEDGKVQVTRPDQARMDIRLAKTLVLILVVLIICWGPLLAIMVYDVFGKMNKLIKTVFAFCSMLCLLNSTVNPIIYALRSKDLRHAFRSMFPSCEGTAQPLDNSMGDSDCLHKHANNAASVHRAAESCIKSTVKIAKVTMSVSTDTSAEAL
# human CB1R [2] = target: T1, human CB1R; type: cell-based
# [3] = cited from earlier work
# inflammation = settings: co-administered with THC; cited from earlier work
# [4] = tested on: glutamatergic synapses in hippocampus and cortex; settings: cited from earlier work
# [5] = target: α2δ Ca2+ calcium channels; settings: antagonist; cited from earlier work
# [6] = tested on: neuropathic and chronic pain; settings: 1,000 mg given ×1 (once a day); cited from earlier work
# [7] = DLPA 1 mM, alone or + 10 μM THCA, 1 μM CBD or 10 μM THC
# [8] = DLPA 2.5 mM, alone or + 10 μM THCA, 1 μM CBD or 10 μM THC
# [9] = DLPA 5 mM, alone or + 10 μM THCA, 1 μM CBD or 10 μM THC
# [10] = DLPA 7.5 mM, alone or + 10 μM THCA, 1 μM CBD or 10 μM THC
# [11] = DLPA 10 mM, alone or + 10 μM THCA, 1 μM CBD or 10 μM THC
# [12] = DLPA 1 mM, alone or + 10 μM THCA or THC
# [13] = DLPA 2.5 mM, alone or + 10 μM THCA or THC
# [14] = DLPA 5 mM, alone or + 10 μM THCA or THC
# [15] = DLPA 7.5 mM, alone or + 10 μM THCA or THC
# [16] = DLPA 10 mM, alone or + 10 μM THCA or THC
# [17] = THCA or THC without DLPA, 10 μM
smiles,measurement,setting,value
"CCCCCCC(C)(C)c1ccc([C@@H]2C[C@H](O)CC[C@H]2CCCO)c(O)c1 [CP, reference compound]",Experiment 1 Fold change,human CB1R [1],2.5 fold change
same,Experiment 2 Fold change,human CB1R [1],2.5 fold change
same,Experiment 3 Fold change,human CB1R [1],2.5 fold change
same,Experiment 1 Fold change,human CB1R [2],2.5 fold change
same,Experiment 2 Fold change,human CB1R [2],2.5 fold change
same,Experiment 3 Fold change,human CB1R [2],2.5 fold change
"C=C(C)[C@@H]1CCC(C)=C[C@H]1c1c(O)cc(CCCCC)c(C(=O)O)c1O [CBDA, cannabidiolic acid]",Decarboxylation by gastric acids,[3],do not decarboxylate
"CCCCCc1cc(O)c2c(c1)OC(C)(CCC=C(C)C)C=C2 (stereo not drawn) [CBC, cannabichromene]",Anti-inflammatory effect,inflammation,enhanced anti-inflammatory effect
N[C@H](Cc1ccccc1)C(=O)O [D-phenylalanine],Effect on neurotransmitter release (in words),[4]; compared with L-Phenylalanine,significantly smaller effect
"C=C(C)[C@@H]1CCC(C)=C[C@H]1c1c(O)cc(CCCCC)cc1O [CBD, cannabidiol, reference compound]",Conclusions: Is CB1R positive allosteric agonism effect observed?,"human CB1R [1]; CBD without DLPA, 1 μM",Negative (Only treatments that the mean of three consecutive independent experiments shows a positive result (CB1R activity ≥4-fold change) are considered positive CB1R allosteric agonists)
same,Experiment 1 Fold change,"human CB1R [1]; CBD without DLPA, 1 μM",1.4 fold change
same,Experiment 2 Fold change,"human CB1R [1]; CBD without DLPA, 1 μM",1.5 fold change
same,Experiment 3 Fold change,"human CB1R [1]; CBD without DLPA, 1 μM",1.4 fold change
same,Effect of the cannabinoid on the DLPA effect (DLPA alone vs combos),human CB1R [1],"blocked not only the DLPA CB1R allosteric activity, but also the agonistic activity of CP-55940"
"N[C@@H](Cc1ccccc1)C(=O)O [L-Phenylalanine, L-phenylalanine]",pIC50,[4]; hippocampus and cortex,3.01
same,pKi,[5],6.01
"NC(Cc1ccccc1)C(=O)O (racemic) [DLPA, DL-Phenylalanine]",Conclusions: Is CB1R positive allosteric agonism effect observed?,human CB1R [1]; [7],Negative (Only treatments that the mean of three consecutive independent experiments shows a positive result (CB1R activity ≥4-fold change) are considered positive CB1R allosteric agonists)
same,Experiment 1 Fold change,human CB1R [1]; [7],2.7 fold change
same,Experiment 2 Fold change,human CB1R [1]; [7],2.5 fold change
same,Experiment 3 Fold change,human CB1R [1]; [7],3.0 fold change
same,Conclusions: Is CB1R positive allosteric agonism effect observed?,human CB1R [1]; [8],Negative (Only treatments that the mean of three consecutive independent experiments shows a positive result (CB1R activity ≥4-fold change) are considered positive CB1R allosteric agonists)
same,Experiment 1 Fold change,human CB1R [1]; [8],2.4 fold change
same,Experiment 2 Fold change,human CB1R [1]; [8],2.1 fold change
same,Experiment 3 Fold change,human CB1R [1]; [8],4.0 fold change
same,Conclusions: Is CB1R positive allosteric agonism effect observed?,human CB1R [1]; [9],Negative (Only treatments that the mean of three consecutive independent experiments shows a positive result (CB1R activity ≥4-fold change) are considered positive CB1R allosteric agonists)
same,Experiment 1 Fold change,human CB1R [1]; [9],3.1 fold change
same,Experiment 2 Fold change,human CB1R [1]; [9],2.7 fold change
same,Experiment 3 Fold change,human CB1R [1]; [9],2.9 fold change
same,Conclusions: Is CB1R positive allosteric agonism effect observed?,human CB1R [1]; [10],Negative (Only treatments that the mean of three consecutive independent experiments shows a positive result (CB1R activity ≥4-fold change) are considered positive CB1R allosteric agonists)
same,Experiment 1 Fold change,human CB1R [1]; [10],3.1 fold change
same,Experiment 2 Fold change,human CB1R [1]; [10],3.1 fold change
same,Experiment 3 Fold change,human CB1R [1]; [10],5.0 fold change
same,Conclusions: Is CB1R positive allosteric agonism effect observed?,human CB1R [1]; [11],Allosterism (An increase of the fold change ≥4-fold indicates CB1R positive allosteric agonistic activity)
same,Experiment 1 Fold change,human CB1R [1]; [11],4.0 fold change
same,Experiment 2 Fold change,human CB1R [1]; [11],3.5 fold change
same,Experiment 3 Fold change,human CB1R [1]; [11],6.5 fold change
same,CB1R positive allosteric effect (in words),"human CB1R [1]; on CP-55940 activity, dose-response curve, FIG. 4",clear CB1R positive allosteric effect
same,Conclusions: Is CB1R agonist effect observed?,human CB1R [2]; [12],Negative (Only treatments that the mean of three consecutive independent experiments shows a positive result: CB1R activity ≥2.5-fold increase or ≥4-fold increase are considered CB1R agonists or CB1R positive allosteric modulators)
same,Experiment 1 Fold change,human CB1R [2]; [12],0.9 fold change
same,Experiment 2 Fold change,human CB1R [2]; [12],0.9 fold change
same,Experiment 3 Fold change,human CB1R [2]; [12],1.0 fold change
same,Conclusions: Is CB1R agonist effect observed?,human CB1R [2]; [13],Negative (Only treatments that the mean of three consecutive independent experiments shows a positive result: CB1R activity ≥2.5-fold increase or ≥4-fold increase are considered CB1R agonists or CB1R positive allosteric modulators)
same,Experiment 1 Fold change,human CB1R [2]; [13],1.0 fold change
same,Experiment 2 Fold change,human CB1R [2]; [13],0.9 fold change
same,Experiment 3 Fold change,human CB1R [2]; [13],0.9 fold change
same,Conclusions: Is CB1R agonist effect observed?,human CB1R [2]; [14],Negative (Only treatments that the mean of three consecutive independent experiments shows a positive result: CB1R activity ≥2.5-fold increase or ≥4-fold increase are considered CB1R agonists or CB1R positive allosteric modulators)
same,Experiment 1 Fold change,human CB1R [2]; [14],0.8 fold change
same,Experiment 2 Fold change,human CB1R [2]; [14],0.8 fold change
same,Experiment 3 Fold change,human CB1R [2]; [14],0.7 fold change
same,Conclusions: Is CB1R agonist effect observed?,human CB1R [2]; [15],Negative (Only treatments that the mean of three consecutive independent experiments shows a positive result: CB1R activity ≥2.5-fold increase or ≥4-fold increase are considered CB1R agonists or CB1R positive allosteric modulators)
same,Experiment 1 Fold change,human CB1R [2]; [15],1.0 fold change
same,Experiment 2 Fold change,human CB1R [2]; [15],0.8 fold change
same,Experiment 3 Fold change,human CB1R [2]; [15],1.0 fold change
same,Conclusions: Is CB1R agonist effect observed?,human CB1R [2]; [16],Negative (Only treatments that the mean of three consecutive independent experiments shows a positive result: CB1R activity ≥2.5-fold increase or ≥4-fold increase are considered CB1R agonists or CB1R positive allosteric modulators)
same,Experiment 1 Fold change,human CB1R [2]; [16],1.1 fold change
same,Experiment 2 Fold change,human CB1R [2]; [16],1.0 fold change
same,Experiment 3 Fold change,human CB1R [2]; [16],1.0 fold change
same,CB1R agonistic activity (in words),"human CB1R [2]; all tested concentrations, DLPA 1-10 mM, THC or THCA 10 μM",did not show CB1R agonistic activity
same,Relief of neuropathic and chronic pain,[6],beneficial
"CCCCCc1cc2c(c(O)c1C(=O)O)[C@@H]1C=C(C)CC[C@H]1C(C)(C)O2 [THCA, tetrahydrocannabinolic acid]",Decarboxylation by gastric acids,[3],do not decarboxylate
same,Effect of the cannabinoid on the DLPA effect (DLPA alone vs combos),human CB1R [1],did not modify the DLPA effect
same,Conclusions: Is CB1R positive allosteric agonism effect observed?,human CB1R [1]; [17],Negative (Only treatments that the mean of three consecutive independent experiments shows a positive result (CB1R activity ≥4-fold change) are considered positive CB1R allosteric agonists)
same,Experiment 1 Fold change,human CB1R [1]; [17],2.2 fold change
same,Experiment 2 Fold change,human CB1R [1]; [17],3.1 fold change
same,Experiment 3 Fold change,human CB1R [1]; [17],2.8 fold change
same,Conclusions: Is CB1R agonist effect observed?,"human CB1R [2]; THCA or THC alone, 10 μM",Negative (Only treatments that the mean of three consecutive independent experiments shows a positive result: CB1R activity ≥2.5-fold increase or ≥4-fold increase are considered CB1R agonists or CB1R positive allosteric modulators)
same,Experiment 1 Fold change,"human CB1R [2]; THCA or THC alone, 10 μM",0.8 fold change
same,Experiment 2 Fold change,"human CB1R [2]; THCA or THC alone, 10 μM",1.0 fold change
same,Experiment 3 Fold change,"human CB1R [2]; THCA or THC alone, 10 μM",1.0 fold change
